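1) Cells in 96-well plates. 2) Compound, 48 h, 5 concentrations. 3) Linear interpolation between surrounding doses. 4) Unreached endpoint = highest concentration. GI50 marks 50% less growth. TGI: total growth inhibition.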
Tests used:
Assay in all cases: NCI anticancer screen, dose series, 48 h
[1] = tested on: UACC-257 melanoma
[2] = tested on: SN12C renal
[3] = tested on: EKVX NSCLC
[4] = tested on: MDA-MB-468 breast
[5] = tested on: MDA-MB-435
[6] = tested on: OVCAR-8 ovarian
[7] = tested on: OVCAR-5 ovarian
[8] = tested on: HCC-2998 colon
[9] = tested on: UO-31 renal
[10] = tested on: A549 NSCLC
[11] = tested on: LOX IMVI melanoma
[12] = tested on: CCRF-CEM leukemia
[13] = tested on: TK-10 renal
[14] = tested on: K-562 leukemia
[15] = tested on: MCF7 breast
[16] = tested on: SNB-75 CNS
[17] = tested on: ACHN renal
[18] = tested on: M14 melanoma
[19] = tested on: NCI-H460 lung
[20] = tested on: CAKI-1 renal
[21] = tested on: A498 renal
[22] = tested on: SK-MEL-2 melanoma
[23] = tested on: NCI-H23 lung
[24] = tested on: UACC-62 melanoma
[25] = tested on: SK-MEL-28 melanoma
[26] = tested on: HCT-116 colon
[27] = tested on: SF-268 CNS
[28] = tested on: HOP-62 NSCLC
[29] = tested on: NCI-H522 lung
[30] = tested on: MOLT-4 leukemia
[31] = tested on: OVCAR-3 ovarian
[32] = tested on: SF-539 CNS
[33] = tested on: OVCAR-4 ovarian
[34] = tested on: HOP-92 NSCLC
[35] = tested on: MDA-MB-231 breast
[36] = tested on: DU-145 prostate
[37] = tested on: MALME-3M melanoma
[38] = tested on: SK-OV-3 ovarian
[39] = tested on: RPMI-8226 leukemia
[40] = tested on: NCI-H226 lung
[41] = tested on: T-47D breast
[42] = tested on: KM12 colon
[43] = tested on: PC-3 prostate
[44] = tested on: HL-60(TB) leukemia
[45] = tested on: SK-MEL-5 melanoma
[46] = tested on: IGROV1 ovarian
[47] = tested on: SNB-19 CNS
[48] = tested on: BT-549 breast
[49] = tested on: 786-0 renal
[50] = tested on: NCI/ADR-RES ovarian
[51] = tested on: COLO 205 colon
[52] = tested on: HT29 colon
[53] = tested on: SF-295 CNS
[54] = tested on: U251 CNS
[55] = tested on: SW-620 colon
[56] = tested on: HS 578T breast
[57] = tested on: HCT-15 colon
[58] = tested on: RXF 393 renal

`Cc1nc(Nc2ccccn2)sc1C(=O)CC(SCC(=O)Nc1ccc(Cl)cc1)c1ccccc1F` (stereo unspecified) gave a GI50 [1] of 4.72 µM, a TGI [1] of 19.4 µM and a GI50 [2] of 2.72 µM. For the same molecule, the TGI [2] was 10.5 µM, the GI50 [3] was 3.15 µM and the TGI [3] was 13.4 µM. The GI50 [4] was 1.58 µM, the TGI [4] was 5.05 µM and the GI50 [5] was 1.02 µM. For the same molecule, the TGI [5] was 2.78 µM, the GI50 [6] was 2.31 µM and the TGI [6] was 5.88 µM. For the same molecule, the GI50 [7] was 2.6 µM, the TGI [7] was 6.89 µM and the GI50 [8] was 3.44 µM. The TGI [8] was 13.8 µM, the GI50 [9] was 3.44 µM and the TGI [9] was 16.4 µM. It also gave a GI50 [10] of 3.15 µM, a TGI [10] of 22.8 µM and a GI50 [11] of 2.31 µM. It also gave a TGI [11] of 10.3 µM, a GI50 [12] of 2.39 µM and a TGI [12] of over 100 µM. The GI50 [13] was 4.79 µM, the TGI [13] was 16.8 µM and the GI50 [14] was over 100 µM. It also gave a TGI [14] of over 100 µM, a GI50 [15] of 1.25 µM and a TGI [15] of 13.8 µM. The GI50 [16] was 1.42 µM, the TGI [16] was 6.22 µM and the GI50 [17] was 3.9 µM. It also gave a TGI [17] of 14.8 µM, a GI50 [18] of 1.69 µM and a TGI [18] of 4.02 µM. It also gave a GI50 [19] of 2.23 µM, a TGI [19] of 5.22 µM and a GI50 [20] of 2.71 µM. It also gave a TGI [20] of 16.9 µM, a GI50 [21] of 12.7 µM and a TGI [21] of 35.7 µM. For the same molecule, the GI50 [22] was 2.03 µM, the TGI [22] was 4.74 µM and the GI50 [23] was 3.84 µM. It also gave a TGI [23] of 15.7 µM, a GI50 [24] of 2.24 µM and a TGI [24] of 10.3 µM. For the same molecule, the GI50 [25] was 5.45 µM, the TGI [25] was 19.7 µM and the GI50 [26] was 2.2 µM. The TGI [26] was 6.46 µM, the GI50 [27] was 3.74 µM and the TGI [27] was 17.3 µM. The GI50 [28] was 2.79 µM, the TGI [28] was 12.3 µM and the GI50 [29] was 2.22 µM. For the same molecule, the TGI [29] was 6.4 µM, the GI50 [30] was over 100 µM and the TGI [30] was over 100 µM. It also gave a GI50 [31] of 1.53 µM, a TGI [31] of 11.6 µM and a GI50 [32] of 2.02 µM. The TGI [32] was 4.41 µM, the GI50 [33] was 11.4 µM and the TGI [33] was 71.4 µM. For the same molecule, the GI50 [34] was 4.94 µM, the TGI [34] was 25.9 µM and the GI50 [35] was 2.64 µM. It also gave a TGI [35] of 7.86 µM, a GI50 [36] of 3.34 µM and a TGI [36] of 13.2 µM. It also gave a GI50 [37] of 4.91 µM, a TGI [37] of 19.6 µM and a GI50 [38] of 3.63 µM. It also gave a TGI [38] of 29.2 µM, a GI50 [39] of 3.33 µM and a TGI [39] of 72.1 µM. The GI50 [40] was 7.91 µM, the TGI [40] was 31.2 µM and the GI50 [41] was 2.28 µM. It also gave a TGI [41] of 9.79 µM, a GI50 [42] of 1.39 µM and a TGI [42] of 8.67 µM. The GI50 [43] was 4.04 µM, the TGI [43] was 93.6 µM and the GI50 [44] was over 100 µM. It also gave a TGI [44] of over 100 µM, a GI50 [45] of 2.2 µM and a TGI [45] of 5.86 µM. For the same molecule, the GI50 [46] was 3.87 µM, the TGI [46] was 20.7 µM and the GI50 [47] was 3.28 µM. For the same molecule, the TGI [47] was 14.4 µM, the GI50 [48] was 2.83 µM and the TGI [48] was 9.85 µM. The GI50 [49] was 3.74 µM, the TGI [49] was 14.3 µM and the GI50 [50] was 1.81 µM. It also gave a TGI [50] of 5.44 µM, a GI50 [51] of 2.18 µM and a TGI [51] of 4.67 µM. The GI50 [52] was 2.16 µM, the TGI [52] was 5.44 µM and the GI50 [53] was 2.77 µM. For the same molecule, the TGI [53] was 12.3 µM, the GI50 [54] was 2.22 µM and the TGI [54] was 6.41 µM. For the same molecule, the GI50 [55] was 2.56 µM, the TGI [55] was 11.7 µM and the GI50 [56] was 2.14 µM. The TGI [56] was 6.17 µM, the GI50 [57] was 1.8 µM and the TGI [57] was 11.2 µM. For the same molecule, the GI50 [58] was 2.32 µM and the TGI [58] was 8.73 µM.

Source: PubChem BioAssay (NCI)
